Assays:
[1] = Pharmacokinetics after intravenous and oral administration in rats; format: in vivo
Procedure: The compounds disclosed herein are assessed in pharmacokinetic studies in mice, rats, dogs or monkeys. The compounds are administered as a water solution, 2% HPMC+1% TWEEN®80 in water solution, 5% DMSO+5% solutol in saline, 4% MC suspension or capsule. For the intravenous administration, the animals are generally given at 1 or 2 mg/kg dose. For the oral (p.o.) dosing, mice and rats are generally given 5 or 10 mg/kg dose, and dogs and monkeys are generally given 10 mg/kg dose. The blood samples (0.3 mL) are drawn at 0.25, 0.5, 1.0, 2.0, 3.0, 4.0, 6.0, 8.0, 12 and 24 h time points or 0.083, 0.25, 0.5, 1.0, 2.0, 4.0, 6.0, 8.0 and 24 h time points and centrifuged at 3,000 or 4000 rpm for 2 to 10 min. The plasma solutions are collected, stored at −20° C. or −70° C. until analyzed by LC/MS/MS as described above.

c-Met (h) = biological target: T1, c-Met (h) (Homo sapiens, UniProt P08581); test: c-Met (h) kinase assay (IC50); format: biochemical; conditions: cells marked (IC50) in the Kd table
T1 construct: host or cells: E. coli BL21-derived host (T7 phage) or HEK-293
Procedure: (§1) The above assay procedure can be used to determine the IC50 for inhibition and/or the inhibition constant, Ki. The IC50 is defined as the concentration of compound required to reduce the enzyme activity by 50% under the condition of the assay. The IC50 value is estimated by preparing a 10 point curve using a ½ log dilution series (for example, a typical curve may be prepared using the following compound concentrations; 100 μM, 30 μM, 10 μM, 3 μM, 1 μM, 0.3 μM, 0.1 μM, 0.03 μM, 0.01 μM and 0 μM).
(§2) (specific activity approx. 500 cpm/pmol, concentration as required).
(§3) The kinase assays described herein can be performed at Millipore UK Ltd, Dundee Technology Park, Dundee DD2 1SW, UK c-Met (h) Assay.

KDR (h) = biological target: T2, KDR (h) (Homo sapiens, UniProt P35968); test: KDR (h) (VEGF-R2 (h)) kinase assay (IC50); format: biochemical; conditions: cells marked (IC50) in the Kd table
T2 construct: host or cells: E. coli BL21-derived host (T7 phage) or HEK-293
Procedure: as §1
KDR (h) (VEGF-R2 (h)) Assay
as §2, §3

[2] = rat, plasma, iv dosing, 2 mg/kg

T2 sequence (P35968 20-1356): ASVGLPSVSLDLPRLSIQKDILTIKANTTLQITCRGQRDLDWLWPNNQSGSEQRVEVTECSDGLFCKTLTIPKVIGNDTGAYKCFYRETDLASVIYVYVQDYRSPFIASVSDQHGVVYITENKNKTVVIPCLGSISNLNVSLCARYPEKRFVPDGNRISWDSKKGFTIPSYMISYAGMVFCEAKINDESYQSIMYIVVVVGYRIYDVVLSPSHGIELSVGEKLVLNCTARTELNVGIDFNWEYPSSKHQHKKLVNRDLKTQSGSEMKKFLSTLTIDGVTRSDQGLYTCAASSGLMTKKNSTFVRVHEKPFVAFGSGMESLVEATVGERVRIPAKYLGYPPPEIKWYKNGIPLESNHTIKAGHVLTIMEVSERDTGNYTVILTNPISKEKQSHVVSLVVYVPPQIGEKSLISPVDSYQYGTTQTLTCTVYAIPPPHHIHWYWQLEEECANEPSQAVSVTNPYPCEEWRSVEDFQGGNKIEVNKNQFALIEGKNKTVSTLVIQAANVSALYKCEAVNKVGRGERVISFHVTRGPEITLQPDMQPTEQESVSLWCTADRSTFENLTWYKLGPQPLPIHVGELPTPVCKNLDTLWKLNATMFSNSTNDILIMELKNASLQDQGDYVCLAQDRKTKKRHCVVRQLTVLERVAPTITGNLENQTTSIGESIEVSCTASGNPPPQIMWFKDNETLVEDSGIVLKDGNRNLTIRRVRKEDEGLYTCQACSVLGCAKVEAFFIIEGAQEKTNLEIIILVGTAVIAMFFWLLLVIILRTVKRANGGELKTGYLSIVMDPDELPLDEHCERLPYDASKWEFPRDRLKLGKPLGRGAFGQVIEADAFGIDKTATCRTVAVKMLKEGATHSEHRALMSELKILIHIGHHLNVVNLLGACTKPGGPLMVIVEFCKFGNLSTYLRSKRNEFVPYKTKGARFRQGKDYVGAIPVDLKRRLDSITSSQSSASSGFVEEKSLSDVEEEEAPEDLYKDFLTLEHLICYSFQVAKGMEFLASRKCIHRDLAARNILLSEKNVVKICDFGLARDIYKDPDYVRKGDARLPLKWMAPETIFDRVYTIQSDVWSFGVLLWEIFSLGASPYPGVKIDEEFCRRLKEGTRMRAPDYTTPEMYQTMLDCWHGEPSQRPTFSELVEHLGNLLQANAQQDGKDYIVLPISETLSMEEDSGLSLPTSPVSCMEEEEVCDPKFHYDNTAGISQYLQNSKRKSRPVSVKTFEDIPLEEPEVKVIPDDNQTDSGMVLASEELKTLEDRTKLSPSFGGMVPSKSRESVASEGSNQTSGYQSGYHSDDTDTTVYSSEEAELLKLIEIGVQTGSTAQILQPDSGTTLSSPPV
T1 sequence (P08581 25-1390): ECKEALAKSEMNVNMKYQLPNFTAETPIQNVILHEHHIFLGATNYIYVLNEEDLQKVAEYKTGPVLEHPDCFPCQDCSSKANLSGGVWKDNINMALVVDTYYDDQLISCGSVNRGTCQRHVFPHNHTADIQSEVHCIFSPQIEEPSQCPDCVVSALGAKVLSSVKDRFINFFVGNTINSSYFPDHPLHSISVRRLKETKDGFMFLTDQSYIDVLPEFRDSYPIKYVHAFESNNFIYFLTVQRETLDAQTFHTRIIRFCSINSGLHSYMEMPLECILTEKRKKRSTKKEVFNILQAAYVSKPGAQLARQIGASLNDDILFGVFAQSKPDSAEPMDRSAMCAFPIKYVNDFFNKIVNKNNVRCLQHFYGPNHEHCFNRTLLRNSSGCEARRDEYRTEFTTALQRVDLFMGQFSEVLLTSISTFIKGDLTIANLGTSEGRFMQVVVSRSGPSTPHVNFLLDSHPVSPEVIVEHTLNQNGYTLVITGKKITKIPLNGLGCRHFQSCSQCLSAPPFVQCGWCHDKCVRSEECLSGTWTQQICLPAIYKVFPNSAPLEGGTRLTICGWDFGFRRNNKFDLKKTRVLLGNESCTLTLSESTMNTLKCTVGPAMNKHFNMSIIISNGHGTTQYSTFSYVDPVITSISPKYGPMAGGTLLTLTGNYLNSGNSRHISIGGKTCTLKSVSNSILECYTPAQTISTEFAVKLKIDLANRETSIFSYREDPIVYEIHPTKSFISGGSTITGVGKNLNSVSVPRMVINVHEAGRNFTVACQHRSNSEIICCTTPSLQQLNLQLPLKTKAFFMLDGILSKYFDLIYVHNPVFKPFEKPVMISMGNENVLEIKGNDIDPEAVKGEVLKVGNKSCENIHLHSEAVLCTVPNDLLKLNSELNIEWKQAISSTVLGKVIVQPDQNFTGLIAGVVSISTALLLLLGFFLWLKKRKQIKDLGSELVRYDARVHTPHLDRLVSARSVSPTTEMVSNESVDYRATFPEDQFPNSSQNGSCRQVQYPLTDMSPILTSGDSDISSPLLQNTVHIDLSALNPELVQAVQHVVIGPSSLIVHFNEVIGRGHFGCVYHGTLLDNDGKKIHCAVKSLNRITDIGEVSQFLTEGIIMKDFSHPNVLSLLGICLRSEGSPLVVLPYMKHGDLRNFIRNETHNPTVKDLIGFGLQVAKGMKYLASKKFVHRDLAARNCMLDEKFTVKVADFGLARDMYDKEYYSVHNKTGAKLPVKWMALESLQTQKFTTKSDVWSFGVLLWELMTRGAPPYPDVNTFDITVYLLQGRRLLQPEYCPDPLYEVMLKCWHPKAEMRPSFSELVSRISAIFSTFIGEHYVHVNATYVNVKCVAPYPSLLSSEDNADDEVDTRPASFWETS

## Cc1c(C(=O)Nc2ccc(Oc3ccnc(N)c3)c(F)c2)c(=O)n(-c2ccccc2)n1C [Ex. 22, N-(4-((2-aminopyridin-4-yl)oxy)-3-fluorophenyl)-1,5-dimethyl-3-oxo-2-phenyl-2,3-dihydro-1H-pyrazole-4-carboxamide]
[1]; iv dosing, 2 mg/kg
  clearance (CL) after iv dosing: 13.3 mL/min/kg
[1]; oral bioavailability, iv dose 2 mg/kg, oral dose not given
  F: 78.1%
[1]; [2]
  AUC(0-t): 2510 ng·h/mL
  half-life: 43.2 min
[1]; rat, plasma, iv dosing, 2 mg/kg, read-out: Vss
  Vd: 0.56 L/kg
c-Met (h)
  IC50: 84 nM
KDR (h)
  IC50: > 3000 nM

From US8969388B1, “Substituted pyrazolone compounds and methods of use” (Calitor Sciences, LLC, priority 2012, dated 2015)
